Assay results from patent publication US20150010474A1, “Compounds And Methods For Selective Imaging And/Or Ablation” (Auckland Uniservices Limited, priority 2011, published 2015).

How the values were obtained:
[1] = system: bacterial nitroreductase over-expressing E. coli strains; assay: IC50 (turbidity) in selected NTR over-expressing library strains; type: cell-based, Escherichia coli; conditions: 4 h post-challenge, serial dilution
Description: FIG. 2.3 illustrates the IC50 of compound 67 for selected NTR library strains (i.e. the concentration of compound 67 that yielded only 50% turbidity relative to an unchallenged control 4 h post-challenge, in replicate cultures across a serial dilution of compound 67). The strains selected were all those observed to have SOS activity above the empty plasmid control (“Empty”) in response to challenge with compound 67 as illustrated in FIG. 2(B), plus NfsB (E.c) as a negative control. For the IC50 assays, 100 μl of overnight cultures were used to inoculate 2 ml M63 minimal medium supplemented with 100 μg·ml^−1 ampicillin and 50 μM IPTG and incubated at 30° C., 200 rpm for 3.5 h. 40 μL aliquots from each culture were then added to individual wells of a sterile 384 well plate, each already containing 40 μl of ampicillin and IPTG-supplemented M63 medium and a dilution series of compound 67 as indicated on the X-axis of panel A. A. Raw growth curves. Each NTR over-expression strain was tested at least in duplicate (independent replicates), with the exception of NfsB (E.c), which was only measured once. Culture turbidity was monitored by optical density at 600 nm 4 h post-challenge. B. IC50 values calculated by comparison of the challenged cells with the unchallenged control for each strain, after subtracting the initial absorbance values (t=0 h), using SigmaPlot 10.0 (Systat Software Inc., Richmond, Calif.). Errors are 1 standard error of the mean (SEM).
FIG. 2.4 illustrates the IC50 of compound 93 for selected NTR library strains. […] B. IC50 values calculated by comparison of the challenged cells with the unchallenged control for each strain, after subtracting the initial absorbance values (t=0 h), using SigmaPlot 10.0 (Systat Software Inc., Richmond, Calif.). […]
FIG. 2.5 illustrates the IC50 of compound 97 for selected NTR library strains. […] B. IC50 values calculated by comparison of the challenged cells with the unchallenged control for each strain, after subtracting the initial absorbance values (t=0 h), using SigmaPlot 10.0 (Systat Software Inc., Richmond, Calif.). […]

CO-Frp (V.h) = molecular target: T1, CO-Frp (V.h) (Vibrio harveyi, UniProt Q56691); assay: Initial rate of metabolism by purified recombinant bacterial nitroreductase (NADPH consumption, UV/Vis); type: biochemical; conditions: compound 500 μM, NADPH 200 μM, 10 mM Tris-Cl pH 7.0; μmol NADPH consumed per mg enzyme per minute
T1 construct: made in house
Description: (§1) The relative initial rates of reductive metabolism of the nitro moiety of test compounds by bacterial nitroreductase's can be measured experimentally by incubating the test compound at near-saturating concentration (determined empirically) with the purified recombinant bacterial nitroreductase enzymes in the presence of NADPH co-factor. UV/Vis spectroscopy is used to measure consumption of the co-factor, indicating metabolism of the test compound by the nitroreductase.
(§2) Compounds 67, 93 and 97 (500 μM) were added to NADPH (200 μM) in 10 mM Tris-Cl pH 7.0. Reactions were initiated by enzyme addition (between 5 and 20 μg per reaction). Rates represent μmol of NADPH consumed per mg enzyme added per minute.

NfsA (E.c) = molecular target: T2, NfsA (E.c) (Escherichia coli, UniProt P17117); assay: as above; type: biochemical; conditions: compound 500 μM, NADPH 200 μM, 10 mM Tris-Cl pH 7.0; μmol NADPH consumed per mg enzyme per minute
T2 construct: made in house
Description: as §1, §2

NfrA (B.s) = molecular target: T3, NfrA (B.s) (Bacillus subtilis, UniProt P39605); assay: as above; type: biochemical; conditions: compound 500 μM, NADPH 200 μM, 10 mM Tris-Cl pH 7.0; μmol NADPH consumed per mg enzyme per minute
T3 construct: made in house
Description: as §1, §2

[2] = One-electron reduction potential E(1) by pulse radiolysis; type: physicochemical; conditions: determined against methylviologen, E(1)MV2+/MV+. = −447 ± 7 mV
Text: The E(1) values of many compounds can be obtained from the literature, (for example, Wardman, P. J. Phys. Chem. Ref. Data, 1989, 18, 1637-1755.) or determined by a number of methods. The pulse radiolysis method, for example, measures the equilibrium constant between the radical anions of the nitroheterocyclic or nitroaromatic compound, formed upon their 1-electron reduction, and reference standards such as viologen and quinone compounds, from which data the E(1) values of the compounds can be calculated. (Meisel and Czapski. J. Phys. Chem., 1975, 79, 1503-1509.)
(Anderson et al, J. Phys. Chem. A, 101, 9704-9709, 1997).

[3] = system: human solid tumour xenograft NCI-H1299 (WT); assay: Hypoxia-dependent binding by fluorescent immunohistochemistry with pimonidazole co-staining; type: in vivo, NIH-III nude mice; conditions: 60 mg/kg i.p., 60 minutes after 60 mg/kg pimonidazole; tumours excised after 120 minutes
Description: FIG. 10 illustrates the absence of hypoxic-dependent binding of compound 67 and compound 93 by fluorescent immune-histochemistry in the human solid tumour xenograft NCI-H1299, with reference to hypoxia staining by compound 15 and pimonidazole (Hypoxyprobe™) as internal standards (positive controls). NCI-H1299 WT tumours were inoculated subcutaneously onto the flank of NIH-Ill nude mice. When the mixed tumours reached approximately 800 mm^3, mice were dosed i.p. with 60 mg/kg of pimonidazole, and 60 minutes later dosed with either 60 mg/kg of compound 15, or 60 mg/kg of compound 67, or 60 mg/kg of compound 93. After 120 minutes the tumours were excised, and fixed in formalin before being embedded in paraffin wax. Tumour section were cut (5 microns) and mounted onto glass slides for immunodetection of bound adducts of compounds. Immunofluorescent microscopy was performed using a monoclonal antibody (Mab1, hybridoma clone 4.3.11.3) conjugated to Alexa-488 (Ex/Em 499/519; green) for the detection of pimonidazole adducts, and monoclonal antibody ELK3-51 directly conjugated to the fluorophore CY5 (Ex/Em 650/670 nm; red) for detection of adducts formed by compound 15 or compound 67 or compound 93. The overlap of pimonidazole with any one of these markers appears as yellow. Images were acquired on a Zeiss LSM 710 confocal microscope (×20 magnification).

T2 sequence (P17117 whole entry): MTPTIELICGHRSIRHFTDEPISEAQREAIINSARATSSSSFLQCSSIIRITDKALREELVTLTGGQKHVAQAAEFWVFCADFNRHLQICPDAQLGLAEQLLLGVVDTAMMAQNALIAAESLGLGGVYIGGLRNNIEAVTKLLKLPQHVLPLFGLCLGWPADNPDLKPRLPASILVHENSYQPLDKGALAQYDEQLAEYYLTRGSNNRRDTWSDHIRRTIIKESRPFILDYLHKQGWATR
T3 sequence (P39605 whole entry): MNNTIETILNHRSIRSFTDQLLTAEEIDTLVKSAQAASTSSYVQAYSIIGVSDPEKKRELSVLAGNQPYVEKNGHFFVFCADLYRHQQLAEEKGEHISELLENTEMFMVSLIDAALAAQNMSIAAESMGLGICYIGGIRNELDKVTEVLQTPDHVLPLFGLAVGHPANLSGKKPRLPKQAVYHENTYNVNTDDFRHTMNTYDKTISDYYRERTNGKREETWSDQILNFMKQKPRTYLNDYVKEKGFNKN
T1 sequence (Q56691 whole entry): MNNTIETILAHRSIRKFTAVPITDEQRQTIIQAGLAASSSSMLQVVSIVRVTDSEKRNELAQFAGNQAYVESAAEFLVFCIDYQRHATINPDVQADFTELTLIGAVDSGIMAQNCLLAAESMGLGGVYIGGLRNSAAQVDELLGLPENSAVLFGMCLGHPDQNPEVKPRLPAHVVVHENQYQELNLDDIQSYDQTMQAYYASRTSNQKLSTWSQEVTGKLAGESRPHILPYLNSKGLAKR

O=C(Cn1cnc([N+](=O)[O-])c1)NCC(F)(F)C(F)(F)F [Compound 93, 2-(4-nitro-1H-imidazol-1-yl)-N-(2,2,3,3,3-pentafluoropropyl)acetamide]
Inhibition of bacterial cell growth in NTR over-expressing strains compared to controls [1]: Inhibition of bacterial cell growth was selectively observed | Rate of metabolism by CO-Frp (V.h) (CO-Frp (V.h)): 12.2 µmol/min/mg | Rate of metabolism by NfsA (E.c) (NfsA (E.c)): 7.6 µmol/min/mg | Rate of metabolism by NfrA (B.s) (NfrA (B.s)): 7.5 µmol/min/mg | E(1)/V [2]: −0.578 V | Hypoxia-dependent binding in NCI-H1299 WT tumours, immunofluorescent microscopy (FIG. 10) [3]: not detected in the pimonidazole positive hypoxic regions of the NCI-H1299 tumours

Cc1ncc([N+](=O)[O-])n1CC(=O)NCC(F)(F)C(F)(F)F [Compound 67, 2-(2-methyl-5-nitro-1H-imidazol-1-yl)-N-(2,2,3,3,3-pentafluoropropyl)acetamide]
Inhibition of bacterial cell growth in NTR over-expressing strains compared to controls [1]: Inhibition of bacterial cell growth was selectively observed | Rate of metabolism by CO-Frp (V.h) (CO-Frp (V.h)): 1.1 µmol/min/mg | Rate of metabolism by NfsA (E.c) (NfsA (E.c)): 2.7 µmol/min/mg | Rate of metabolism by NfrA (B.s) (NfrA (B.s)): 1.7 µmol/min/mg | E(1)/V [2]: −0.501 V | Hypoxia-dependent binding in NCI-H1299 WT tumours, immunofluorescent microscopy (FIG. 10) [3]: not detected in the pimonidazole positive hypoxic regions of the NCI-H1299 tumours
